Literature values in patent US20240408115A1, “COMPOSITION AND METHODS OF TREATMENT USING […] - ENHANCED SUPPLEMENTATION” (Xygenyx Inc., priority 2023, published 2024).
Non-standard residues stand in square brackets, D forms with d. Residues, ends and D or L forms follow the SMILES beside them. Cit = NC(=O)NCCC[C@H](N)C(=O)O

Assays:
[1] = in vivo
[2] = penetration enhancer for transdermal drugs
[3] = topical, concentrations 0.5-5%
[4] = in vivo; remark: listed apart in the source
[5] = dietary supplementation, doses up to 400 IU/day
[6] = compared to α-tocopherol = 1.0
F2-isoprostane = details: large doses of 1600-3200 IU/day
[7] = dietary intake in equal portions
[8] = test system: wide dynamic range neurons in the ventroposterolateral nucleus of the thalamus; details: in vivo
[9] = topical formulations, within four weeks of treatment

For “HGH: hormone comprising a peptide chain that is synthesized in the pituitary gland”, the biological half-life [1] is given as 10-20 minutes.

For `CC12CCC(CC1)C(C)(C)O2` [eucalyptol, 1,8-epoxy-p-menthane], the “increase of transdermal drug uptake (factor)” value [2] is listed as “more than 10”.

In the case of `C=CCCCCCCCCC(=O)N[C@@H](Cc1ccccc1)C(=O)O` [UP, Undecylenoyl phenylalanine], the “time to skin lightening effects” value [3] is given as at least 7 days.

For `CC(C)[C@@H]1CC[C@@H](C)C[C@H]1O` [Menthol], the “increase of transdermal drug uptake (factor)” value [2] is listed as at least 10.

For `CCNC(=O)CC[C@H](N)C(=O)O` [Theanine], the “dose considered safe and well-tolerated” value [4] is given as “up to 400 mg per day”.

For `Cc1c(C)c2c(c(C)c1O)CC[C@@](C)(CCC[C@H](C)CCC[C@H](C)CCCC(C)C)O2` [α-tocopherol], the “reduction of risk of coronary disease” value [5] is given as “up to 34%”, the “reduction of risk of developing neurodegenerative diseases such as Alzheimer's Syndrome or dementia” value ([5]; controlled trials) is given as at most 24% and the relative biological activity [6] is given as 1.0. For the same compound, the “blood plasma concentration of F2-isoprostane” value (F2-isoprostane) was “significantly lower”.

In the case of `Cc1c(O)cc2c(c1C)O[C@](C)(CCC[C@H](C)CCC[C@H](C)CCCC(C)C)CC2` [γ-tocopherol], the “concentration in vivo relative to α-tocopherol” value [7] is listed as “roughly 10%” and the relative biological activity [6] is listed as 0.1.

In the case of `CCCCCc1cc(O)c2c(c1)OC(C)(C)C1CCC(C)=CC21` (stereo not drawn) [THC, Δ-9-tetrahydrocannabinol], the “potency in mediating pain relative to morphine” value [8] is listed as “ten times more powerful than morphine”.

For `CC[C@H](C)[C@H](NC(=O)[C@H](CC(=O)O)NC(=O)[C@@H](N)CCCCN)C(=O)N[C@@H](CCCNC(N)=O)C(N)=O` [Tripeptide-10 citrulline] (H-KDI[Cit]-NH2), the improvement of suppleness [9] is given as at most 54%.

For `Cc1cc(O)c(C)c2c1O[C@](C)(CCC[C@H](C)CCC[C@H](C)CCCC(C)C)CC2` [β-tocopherol], the relative biological activity [6] is listed as 0.5.

In the case of `Cc1cc(O)cc2c1O[C@](C)(CCC[C@H](C)CCC[C@H](C)CCCC(C)C)CC2` [δ-tocopherol], the relative biological activity [6] is given as 0.03.
